Results reported in patent US20040176349A1, “Antibacterial composition” (priority 2001, published 2004).
Where two headings read alike, the source gives them in different places.

Columns and labels:
E. faecalis ATCC 10541 = test: Checkerboard microdilution MIC with PFOB, Table 2; format: cell-based; conditions: E. faecalis ATCC 10541; for Synergy FIC: FIC index of PFOB + labelled partner, <0.5 = synergy; for MIC of partner antibiotic in the presence of PFOB at 0.5 mg/L: PFOB 0.5 mg/L; for MIC of partner antibiotic in the presence of PFOB at 1 mg/L: PFOB 1 mg/L; for MIC of partner antibiotic in the presence of PFOB at 2 mg/L: PFOB 2 mg/L; for MIC of partner antibiotic in the presence of PFOB at 16 mg/L: PFOB 16 mg/L; for MIC of partner antibiotic in the presence of PFOB at 32 mg/L: PFOB 32 mg/L; for MIC: Enterococcus faecalis, ATCC10541; for MIC of partner antibiotic in the presence of PFOB at 4 mg/L: PFOB 4 mg/L; for MIC of partner antibiotic in the presence of PFOB at 8 mg/L: PFOB 8 mg/L
Text: The aim of the study was to detect any synergy between PFOB and the other antibiotics. For the purposes of the study, synergy was defined in accordance with the FIC (fractional inhibitory concentration) index, as disclosed by Lorian (1991, In “Antibiotics in Laboratory Medicine” 3rd edition, Eds. Williams & Wilkins; esp. p 434-443).

enterococci = test: Checkerboard study, synergy summary of Example 2; format: cell-based, Enterococcus; conditions: in words
Text: (§1) The aim of the study was to detect any synergy between PFOB and the other antibiotics. For the purposes of the study, synergy was defined in accordance with the FIC (fractional inhibitory concentration) index, as disclosed by Lorian (1991, In “Antibiotics in Laboratory Medicine” 3rd edition, Eds. Williams & Wilkins; esp. p 434-443). In essence, if the combination of test compounds gives at least a 4-fold reduction in the FIC value for each compound, then a synergy may be considered to exist (i.e. FIC of the combination <0.5=synergy; FIC 0.5-2.0=“indifference”; and FIC >2=antagonism).

E. faecalis 5659 (vanA) = test: Checkerboard microdilution MIC with PFOB, Table 2; format: cell-based; conditions: E. faecalis 5659 (vanA); for MIC of partner antibiotic in the presence of PFOB at 0.5 mg/L: PFOB 0.5 mg/L; for MIC of partner antibiotic in the presence of PFOB at 1 mg/L: PFOB 1 mg/L; for MIC of partner antibiotic in the presence of PFOB at 2 mg/L: PFOB 2 mg/L; for MIC of partner antibiotic in the presence of PFOB at 4 mg/L: PFOB 4 mg/L; for MIC of partner antibiotic in the presence of PFOB at 8 mg/L: PFOB 8 mg/L; for MIC of partner antibiotic in the presence of PFOB at 16 mg/L: PFOB 16 mg/L; for MIC of partner antibiotic in the presence of PFOB at 32 mg/L: PFOB 32 mg/L; for MIC: Enterococcus faecalis, partner antibiotic alone, read-out: MIC (alone) of Partner
Text: as §1
(§2) In Table 2, results in the checkerboard indicating synergy are hatched, and specific optimum synergistic combinations are boxed.

E. faecalis ATCC 29212 = test: Checkerboard microdilution MIC with PFOB, Table 2; format: cell-based; conditions: E. faecalis ATCC 29212; for MIC of partner antibiotic in the presence of PFOB at 0.5 mg/L: PFOB 0.5 mg/L; for MIC of partner antibiotic in the presence of PFOB at 1 mg/L: PFOB 1 mg/L; for MIC of partner antibiotic in the presence of PFOB at 2 mg/L: PFOB 2 mg/L; for MIC of partner antibiotic in the presence of PFOB at 4 mg/L: PFOB 4 mg/L; for MIC of partner antibiotic in the presence of PFOB at 8 mg/L: PFOB 8 mg/L; for MIC of partner antibiotic in the presence of PFOB at 16 mg/L: PFOB 16 mg/L; for MIC of partner antibiotic in the presence of PFOB at 32 mg/L: PFOB 32 mg/L; for MIC: Enterococcus faecalis, ATCC29212, partner antibiotic alone, read-out: MIC (alone) of Partner; for Synergy FIC: FIC index of PFOB + labelled partner, <0.5 = synergy; for MIC of PFOB & Partner: Partner concentration: optimum synergistic combination with PFOB, second figure (partner)
Text: as §1, §2

E.faecalis 78097 (van B) = test: Checkerboard microdilution MIC with PFOB, Table 2; format: cell-based; conditions: E.faecalis 78097 (van B); for MIC of partner antibiotic in the presence of PFOB at 0.5 mg/L: PFOB 0.5 mg/L; for MIC of partner antibiotic in the presence of PFOB at 1 mg/L: PFOB 1 mg/L; for MIC of partner antibiotic in the presence of PFOB at 2 mg/L: PFOB 2 mg/L; for MIC of partner antibiotic in the presence of PFOB at 4 mg/L: PFOB 4 mg/L; for MIC of partner antibiotic in the presence of PFOB at 8 mg/L: PFOB 8 mg/L; for MIC of partner antibiotic in the presence of PFOB at 16 mg/L: PFOB 16 mg/L; for MIC of partner antibiotic in the presence of PFOB at 32 mg/L: PFOB 32 mg/L; for MIC: Enterococcus faecalis, partner antibiotic alone, read-out: MIC (alone) of Partner
Text: as §1, §2

[1] = partner antibiotic alone, read-out: MIC (alone) of Partner

| Compound | MIC of partner antibiotic in the presence of PFOB at 0.5 mg/L (E. faecalis ATCC 10541) [µg/mL] | MIC of partner antibiotic in the presence of PFOB at 1 mg/L (E. faecalis ATCC 10541) [µg/mL] | MIC of partner antibiotic in the presence of PFOB at 2 mg/L (E. faecalis ATCC 10541) [µg/mL] | MIC of partner antibiotic in the presence of PFOB at 16 mg/L (E. faecalis ATCC 10541) [µg/mL] | MIC of partner antibiotic in the presence of PFOB at 32 mg/L (E. faecalis ATCC 10541) [µg/mL] | MIC (E. faecalis ATCC 10541; [1]) [µg/mL] | MIC of partner antibiotic in the presence of PFOB at 0.5 mg/L (E. faecalis 5659 (vanA)) [µg/mL] | MIC of partner antibiotic in the presence of PFOB at 1 mg/L (E. faecalis 5659 (vanA)) [µg/mL] | MIC of partner antibiotic in the presence of PFOB at 2 mg/L (E. faecalis 5659 (vanA)) [µg/mL] | MIC of partner antibiotic in the presence of PFOB at 4 mg/L (E. faecalis 5659 (vanA)) [µg/mL] | MIC of partner antibiotic in the presence of PFOB at 8 mg/L (E. faecalis 5659 (vanA)) [µg/mL] | MIC of partner antibiotic in the presence of PFOB at 32 mg/L (E. faecalis 5659 (vanA)) [µg/mL] | MIC (E. faecalis 5659 (vanA)) [µg/mL] | MIC of partner antibiotic in the presence of PFOB at 0.5 mg/L (E. faecalis ATCC 29212) [µg/mL] | MIC of partner antibiotic in the presence of PFOB at 1 mg/L (E. faecalis ATCC 29212) [µg/mL] | MIC of partner antibiotic in the presence of PFOB at 2 mg/L (E. faecalis ATCC 29212) [µg/mL] | MIC of partner antibiotic in the presence of PFOB at 4 mg/L (E. faecalis ATCC 29212) [µg/mL] | MIC of partner antibiotic in the presence of PFOB at 8 mg/L (E. faecalis ATCC 29212) [µg/mL] | MIC of partner antibiotic in the presence of PFOB at 16 mg/L (E. faecalis ATCC 29212) [µg/mL] | MIC of partner antibiotic in the presence of PFOB at 32 mg/L (E. faecalis ATCC 29212) [µg/mL] | other results |
| --- | --- | --- | --- | --- | --- | --- | --- | --- | --- | --- | --- | --- | --- | --- | --- | --- | --- | --- | --- | --- | --- |
| CC1(C)S[C@@H]2[C@H](NC(=O)[C@H](N)c3ccccc3)C(=O)N2[C@H]1C(=O)O [Ampicillin, ampicillin] | 0.25 | 0.25 | 0.25 | 0.06 | <0.03 | 1 | 2 | 2 | 2 | 2 | 1 | 0.25 | 1 | 1 | 1 | 1 | 1 | 1 | 1 | <0.03 | Synergy FIC (E. faecalis ATCC 10541): 0.253; synergy with PFOB (enterococci): less marked, but still significant, synergy; MIC of partner antibiotic in the presence of PFOB at 16 mg/L (E. faecalis 5659 (vanA)): 1 µg/mL; MIC (E. faecalis ATCC 29212): 0.5 µg/mL; MIC of partner antibiotic in the presence of PFOB at 0.5 mg/L (E.faecalis 78097 (van B)): 0.5 µg/mL; MIC of partner antibiotic in the presence of PFOB at 1 mg/L (E.faecalis 78097 (van B)): 0.5 µg/mL; MIC of partner antibiotic in the presence of PFOB at 2 mg/L (E.faecalis 78097 (van B)): 0.5 µg/mL; MIC of partner antibiotic in the presence of PFOB at 4 mg/L (E.faecalis 78097 (van B)): 0.5 µg/mL; MIC of partner antibiotic in the presence of PFOB at 8 mg/L (E.faecalis 78097 (van B)): 0.5 µg/mL; MIC of partner antibiotic in the presence of PFOB at 16 mg/L (E.faecalis 78097 (van B)): 0.5 µg/mL; MIC of partner antibiotic in the presence of PFOB at 32 mg/L (E.faecalis 78097 (van B)): 0.5 µg/mL; MIC (E.faecalis 78097 (van B)): 1 µg/mL |
| CO/N=C(\C(=O)N[C@@H]1C(=O)N2C(C(=O)O)=C(COC(N)=O)CS[C@H]12)c1ccco1 [Cefuroxime, cefuroxime] | >64 | >64 | >64 | <0.06 | <0.06 | > 64 | >64 | >64 | >64 | >64 | >64 | 0.5 | > 64 | >64 | >64 | 32 | 8 | 4 | 1 | <0.06 | Synergy FIC (E. faecalis ATCC 10541): 0.067; MIC of partner antibiotic in the presence of PFOB at 4 mg/L (E. faecalis ATCC 10541): 8 µg/mL; MIC of partner antibiotic in the presence of PFOB at 8 mg/L (E. faecalis ATCC 10541): 0.5 µg/mL; MIC (E. faecalis ATCC 10541; optimum synergistic combination of PFOB with the labelled partner, first figure (PFOB), read-out: MIC of PFOB & Partner: PFOB concentration): 8 µg/mL; MIC (E. faecalis ATCC 10541; optimum synergistic combination with PFOB, second figure (partner), read-out: MIC of PFOB & Partner: Partner concentration): 0.5 µg/mL; MIC of partner antibiotic in the presence of PFOB at 16 mg/L (E. faecalis 5659 (vanA)): >64 µg/mL; Synergy FIC (E. faecalis ATCC 29212): 0.156; MIC of PFOB & Partner: Partner concentration (E. faecalis ATCC 29212): 1 µg/mL; MIC (E. faecalis ATCC 29212): 32 µg/mL; Synergy FIC (E.faecalis 78097 (van B); FIC index of PFOB + labelled partner, <0.5 = synergy): 0.07; MIC of partner antibiotic in the presence of PFOB at 0.5 mg/L (E.faecalis 78097 (van B)): 64 µg/mL; MIC of partner antibiotic in the presence of PFOB at 1 mg/L (E.faecalis 78097 (van B)): 8 µg/mL; MIC of partner antibiotic in the presence of PFOB at 2 mg/L (E.faecalis 78097 (van B)): 8 µg/mL; MIC of partner antibiotic in the presence of PFOB at 4 mg/L (E.faecalis 78097 (van B)): 8 µg/mL; MIC of partner antibiotic in the presence of PFOB at 8 mg/L (E.faecalis 78097 (van B)): 4 µg/mL; MIC of partner antibiotic in the presence of PFOB at 16 mg/L (E.faecalis 78097 (van B)): 1 µg/mL; MIC of partner antibiotic in the presence of PFOB at 32 mg/L (E.faecalis 78097 (van B)): 0.5 µg/mL; MIC of PFOB & Partner: Partner concentration (E.faecalis 78097 (van B); optimum synergistic combination with PFOB, second figure (partner)): 8 µg/mL; MIC (E.faecalis 78097 (van B)): > 64 µg/mL |
| C[C@@H](O)[C@H]1C(=O)N2C(C(=O)O)=C(SCCN=CN)C[C@H]12 [Imipenem, imipenem] | 1 | 1 | 1 | 0.125 | <0.03 | 1 | 1 | 1 | 1 | 1 | 1 | 0.25 | 0.25 | 0.5 | 0.5 | 0.5 | 0.25 | 0.125 | 0.125 | <0.03 | MIC of partner antibiotic in the presence of PFOB at 4 mg/L (E. faecalis ATCC 10541): 1 µg/mL; MIC of partner antibiotic in the presence of PFOB at 8 mg/L (E. faecalis ATCC 10541): 0.25 µg/mL; Synergy FIC (E. faecalis ATCC 29212): 0.375; MIC of PFOB & Partner: Partner concentration (E. faecalis ATCC 29212): 0.12 µg/mL; MIC (E. faecalis ATCC 29212): 0.5 µg/mL; MIC of partner antibiotic in the presence of PFOB at 0.5 mg/L (E.faecalis 78097 (van B)): 1 µg/mL; MIC of partner antibiotic in the presence of PFOB at 1 mg/L (E.faecalis 78097 (van B)): 1 µg/mL; MIC of partner antibiotic in the presence of PFOB at 2 mg/L (E.faecalis 78097 (van B)): 1 µg/mL; MIC of partner antibiotic in the presence of PFOB at 4 mg/L (E.faecalis 78097 (van B)): 1 µg/mL; MIC of partner antibiotic in the presence of PFOB at 8 mg/L (E.faecalis 78097 (van B)): 1 µg/mL; MIC of partner antibiotic in the presence of PFOB at 16 mg/L (E.faecalis 78097 (van B)): 1 µg/mL; MIC of partner antibiotic in the presence of PFOB at 32 mg/L (E.faecalis 78097 (van B)): 1 µg/mL; MIC (E.faecalis 78097 (van B)): 0.5 µg/mL |
